According to US20160052898A1, “NOVEL COMPOUNDS” (BAYER PHARMA AKTIENGESELLSCHAFT, priority 2013, published 2016):
Structures can show the parent of a compound that is named as a salt.

Assays:
Format in all cases: cell-based
[1] = tested on: constitutive active colorectal cancer cell (CRC) Wnt pathway; experiment: HCT116 Super TopFlash cellular reporter assay (constitutive active Wnt pathway); details: HCT116 TOP reporter cells, luciferase expression, 36 hours incubation, 50 μM to 15 nM
In short: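 Luciferase luminescence served as the Wnt read-out after 36 h of compound treatment at 37 °C. Compound came from a pre-dilution series (50 μM down to 15 nM, 3.16-fold steps) in CAFTY buffer. Cells were stable HCT116 TOP reporter cells, with matched FOP-vector control cells tested in parallel, seeded a day earlier.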

[2] = tested on: HCT116 FOP control reporter cell line; experiment: HCT116 FOP control vector reporter assay (non-functional TCF elements); details: Homo sapiens, HCT-116, 36 h, HCT116 FOP control reporter cells, luciferase expression, 36 hours incubation, 50 μM to 15 nM; read-out: HCT116 FOPFlash IC50
In short: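 Stable HCT116 line carrying the non-functional FOP luciferase construct, 10000 cells/well plated 24 hrs before. Compounds 50 μM to 15 nM (3.16-fold steps) in CAFTY buffer pH 7.4 with 2 mM Ca2+, 36 hours at 37° C; luciferase luminescence read.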

wildtype Wnt pathway = experiment: HEK293 Super TopFlash cellular reporter assay, Wnt-3a stimulated (wildtype Wnt pathway); details: Homo sapiens; HEK293 TOP reporter cells, EC50 concentration of recombinant Wnt-3a, 16 hours incubation; read-out: HEK TOP OncoFlash IC50
In short: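 Stable HEK293 Super TopFlash and FOP reporter cells stimulated with recombinant human Wnt-3a (2500–5 ng/ml, two-fold steps). Compounds tested 50 μM to 15 nM in 3.16-fold steps in CAFTY buffer pH 7.4 with 2 mM Ca2+ and 0.01% BSA; luciferase read-out.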

[3] = tested on: HEK293 FOP control reporter cell line; experiment: HEK293 FOP control vector reporter assay; details: Homo sapiens; HEK293 FOP control reporter cells, EC50 concentration of recombinant Wnt-3a, 16 hours incubation; read-out: HEK FOP IC50
In short: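 Stable HEK293 cells carrying FOP control vector (non-functional TCF sites), 10000 cells/well plated 24 h before, stimulated with recombinant human Wnt-3a at 2500–5 ng/ml in two-fold steps. Compounds from 50 μM to 15 nM (3.16-fold) in CAFTY buffer pH 7.4 with 2 mM Ca2+, 0.01% BSA, run in parallel with TOP line; luciferase read-out.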

IC50 ([1]; Homo sapiens, HCT-116, 36 h) [µM] | IC50 [2] [µM] | IC50 (wildtype Wnt pathway) [µM] | IC50 [1] [µM] | Structure (SMILES) | IC50 [3] [µM]
0.0345 | 8.25 | 0.04 |  | COCc1ccc(C(=O)Nc2ccc(-c3ccccc3)cc2)cc1NC(=O)C1(N2CCN(C)CC2)CC1 [Example 96, N-(biphenyl-4-yl)-4-(methoxymethyl)-3-({[1-(4-methylpiperazin-1-yl)cyclopropyl]carbonyl}amino)benzamide hydrochloride (1:1)] | 9.6
0.00521 | ≥ 50 | 0.011 |  | COc1ccc(C(=O)Nc2ccc(-c3ccccc3)cc2)cc1NC(=O)C1(N2CCOCC2)CC1 [Example 101, N-(biphenyl-4-yl)-4-methoxy-3-({[1-(morpholin-4-yl)cyclopropyl]carbonyl}amino)benzamide] | 17
0.0832 | ≥ 50 | 0.077 |  | O=C(CN1CCOCC1)Nc1cc(C(=O)Nc2ccc(-c3ccccc3)cc2)ccc1OC1CC1 [Example 112, N-(biphenyl-4-yl)-4-(cyclopropyloxy)-3-[(morpholin-4-ylacetyl)amino]benzamide] | ≥ 50
0.0362 | ≥ 50 | 0.17 |  | O=C(Nc1ccc(-c2ccccc2)cc1)c1ccc(OC2CC2)c(NC(=O)C2(N3CCN(C4CC4)CC3)CC2)c1 [Example 115, N-(biphenyl-4-yl)-4-(cyclopropyloxy)-3-({[1-(4-cyclopropylpiperazin-1-yl)cyclopropyl]carbonyl}amino)benzamide] | ≥ 50
0.034 | ≥ 50 | 0.11 |  | CS(=O)(=O)Cc1ccc(C(=O)Nc2ccc(-c3ccccc3)cc2)cc1NC(=O)CN1CCOCC1 [Example 124, N-(biphenyl-4-yl)-4-[(methylsulfonyl)methyl]-3-[(morpholin-4-ylacetyl)amino]benzamide] | 11
0.0445 | ≥ 50 | 0.11 |  | O=C(CN1CCOCC1)Nc1cc(C(=O)Nc2ccc(-c3ccccc3)cc2)ccc1OCC(F)(F)F [Example 127, N-(biphenyl-4-yl)-3-[(morpholin-4-ylacetyl)amino]-4-(2,2,2-trifluoroethoxy)benzamide] | 31

Further lines, the molecule ahead of its results:

Structure (SMILES) | IC50 ([1]; Homo sapiens, HCT-116, 36 h) [µM] | IC50 [2] [µM] | IC50 (wildtype Wnt pathway) [µM] | IC50 [1] [µM] | IC50 [3] [µM]
O=C(Nc1ccc(-c2ccccc2)cc1)c1ccc(OC(F)(F)F)c(NC(=O)C2(N3CCOCC3)CC2)c1 [Example 94, N-(biphenyl-4-yl)-3-({[1-(morpholin-4-yl)cyclopropyl]carbonyl}amino)-4-(trifluoromethoxy)benzamide] | 0.0109 | ≥ 50 | 0.00509 |  | 7.6
COCc1ccc(C(=O)Nc2ccc(-c3ccccc3)cc2)cc1NC(=O)C1(N2CCOCC2)CC1 [Example 95, N-(biphenyl-4-yl)-4-(methoxymethyl)-3-({[1-(morpholin-4-yl)cyclopropyl]carbonyl}amino)benzamide] | 0.00458 | ≥ 50 | 0.016 |  | ≥ 50
O=C(Nc1ccc(-c2ccccc2)cc1)c1ccc(Cl)c(NC(=O)C2(N3CCOCC3)CC2)c1 [Example 97, N-(biphenyl-4-yl)-4-chloro-3-({[1-(morpholin-4-yl)cyclopropyl]carbonyl}amino)benzamide] | 0.0242 | ≥ 50 | 0.25 |  | ≥ 50
O=C(Nc1ccc(-c2ccccc2)cc1)c1ccc(C(F)(F)F)c(NC(=O)C2(N3CCOCC3)CC2)c1 [Example 98, N-(biphenyl-4-yl)-3-({[1-(morpholin-4-yl)cyclopropyl]carbonyl}amino)-4-(trifluoromethyl)benzamide] | 0.00724 | ≥ 50 | 0.086 |  | ≥ 50
COc1ccc(C(=O)Nc2ccc(-c3ccccc3)cc2)cc1NC(=O)C1(N2CCN(C)CC2)CC1 [Example 100, N-(biphenyl-4-yl)-4-methoxy-3-({[1-(4-methylpiperazin-1-yl)cyclopropyl]carbonyl}amino)benzamide hydrochloride (1:1)] |  | 20.8 | 0.09 | 0.0248 | 19
CCNC(=O)c1ccc(C(=O)Nc2ccc(-c3ccccc3)cc2)cc1NC(=O)CN1CCOCC1 [Example 102, N^4-(biphenyl-4-yl)-N^1-ethyl-2-[(morpholin-4-ylacetyl)amino]terephthalamide] | 0.0459 | 28.9 | 0.041 |  | 5.8
COCCNC(=O)c1ccc(C(=O)Nc2ccc(-c3ccccc3)cc2)cc1NC(=O)CN1CCOCC1 [Example 106, N^4-(biphenyl-4-yl)-N^1-(2-methoxyethyl)-2-[(morpholin-4-ylacetyl)amino]terephthalamide] | 0.0172 | ≥ 50 | 0.076 |  | ≥ 50
O=C(CN1CCOCC1)Nc1cc(C(=O)Nc2ccc(-c3ccccc3)cc2)ccc1C(=O)NC1CC1 [Example 107, N^4-(biphenyl-4-yl)-N^1-cyclopropyl-2-[(morpholin-4-ylacetyl)amino]terephthalamide] | 0.0385 | 21 | 0.31 |  | 36
COCCCNC(=O)c1ccc(C(=O)Nc2ccc(-c3ccccc3)cc2)cc1NC(=O)CN1CCOCC1 [Example 108, N^4-(biphenyl-4-yl)-N^1-(3-methoxypropyl)-2-[(morpholin-4-ylacetyl)amino]terephthalamide] | 0.0445 | 43.5 | 0.0156 |  | ≥ 50
CSc1ccc(C(=O)Nc2ccc(-c3ccccc3)cc2)cc1NC(=O)CN1CCOCC1 [Example 109, N-(biphenyl-4-yl)-4-(methylsulfanyl)-3-[(morpholin-4-ylacetyl)amino]benzamide] | 0.0488 | ≥ 50 | 0.28 |  | ≥ 50
CN1CCN(C2(C(=O)Nc3cc(C(=O)Nc4ccc(-c5ccccc5)cc4)ccc3OC3CC3)CC2)CC1 [Example 114, N-(biphenyl-4-yl)-4-(cyclopropyloxy)-3-({[1-(4-methylpiperazin-1-yl)cyclopropyl]carbonyl}amino)benzamide] | 0.0158 | 21 | 0.036 |  | ≥ 50
